Test results from patent publication US5573999A, “β-substituted cinnamic acid derivative” (BASF Aktiengesellschaft, priority 1991, dated 1996).

How the values were obtained:
[1] = system: mitochondrial respiration; assay: Inhibition of mitochondrial respiration (rate of reduction of cytochrome c in isolated mitochondria), yeast; type: biochemical, Saccharomyces cerevisiae; conditions: DMSO control
Source text: In order to determine the effect of the compounds according to the invention on mitochondrial respiration it is first necessary to isolate the mitochondria from the organisms being investigated. For this, in the case of the yeast Saccharomyces cerevisiae, the cells in a 30 to 40% strength suspension of the yeast in an aqueous solution of 0.6M mannitol+0.01M tris[hydroxymethyl]-aminomethane+0.002M disodium ethylenediaminetetraacetate (pH 6.8) are disrupted in a glass bead mill, and the extract is fractionated by differential centrifugation at 1000× g and 12000× g. The mitochondria are in the pellet from the 12000× g centrifugation.
(§1) Used as control is a mixture with the equivalent amount of pure DMSO. The inhibition at the concentration of agent in each case is then calculated as follows [formula] where ΔE is the change in extinction, at is the change in time, [formula] is the reaction rate for the control and [formula] is the reaction rate for the sample x.
(§2) The inhibition was determined in each case at a test substance concentration of 1.8/10^-5mol/l .

[2] = system: mitochondrial respiration; assay: Inhibition of mitochondrial respiration (rate of reduction of cytochrome c in isolated mitochondria), house fly; type: biochemical, Musca domestica; conditions: DMSO control
Source text: It is also possible similarly to isolate mitochondria from other organisms, e.g. from the phytopathogenic fungus Drechslera sorokiniana (synonym: Helminthosporium sativum), from the dermatophyte Trichophyton mentagrophytes, which is a human pathogen, and, for example, from the house fly (Musca domestica) as insect or from the spider mite Tetranychus urticae.
as §1, §2

SMILES | % inhibition of respiration at 1.8 × 10^-5 mol/l test substance, Saccharomyces cerevisiae [1] [%] | % inhibition of respiration at 1.8 × 10^-5 mol/l test substance, Musca domestica [2] [%]
COC(=O)/C=C(/OC)c1ccccc1C [Compound 1.1, methyl (E)-β-methoxy-2-methylcinnamate] | 23 | 
COC(=O)/C=C(/OC)c1ccccc1OCc1csc(-c2ccc(F)cc2)n1 [Compound 1.71, methyl (E)-β-methoxy-2-[2-(4-fluorophenyl)-4-thiazolylmethyloxy]cinnamate] | 30 | 18
COC(=O)/C=C(/OC)c1ccccc1Oc1cccc(C)c1 [Compound 1.90, methyl (E)-β-methoxy-2-(3-methylphenoxy)cinnamate] | 85 | 
COC(=O)/C=C(\OC)c1ccccc1Oc1cccc(C)c1 [Compound 1.91, methyl (Z)-β-methoxy-2-(3-methylphenoxy)cinnamate] | 22 | 
COC(=O)/C=C(\C)c1ccccc1CBr [Compound 1.167, methyl (E)-β-methyl-2-bromomethylcinnamate] | 99 | 
CCCCOc1ccc(OCc2ccccc2/C(=C\C(=O)OC)OC)cc1 [Compound 1a.37] | 98 | 
CCOC(=O)/C=C(/OC)c1ccccc1COc1ccc(/C(C)=N/OC)cc1C [Compound 1a.74, ethyl (E)-β-methoxy-2-[2-methyl-4-(1-methoximinoethyl)phenoxymethyl]cinnamate] | 99 | 
CCCOC(=O)/C=C(/OC)c1ccccc1COc1ccc(C(C)=NOC)cc1C [Compound 1a.75] | 70 | 
CCCCOC(=O)/C=C(/OC)c1ccccc1COc1ccc(C(C)=NOC)cc1C [Compound 1a.77] | 63 | 
CO/N=C(\C)c1ccc(OCc2ccccc2/C(=C\C(=O)ON=C(C)C)OC)c(C)c1 [Compound 1a.82] | 94 | 
C=CCOC(=O)/C=C(/OC)c1ccccc1COc1ccc(C(C)=NOC)cc1C [Compound 1a.83] | 78 | 
C#CCOC(=O)/C=C(/OC)c1ccccc1COc1ccc(C(C)=NOC)cc1C [Compound 1a.84] | 98 | 
CON=C(C)c1ccc(OCc2ccccc2/C(=C\C(=O)SC)OC)c(C)c1 [Compound 1a.86] | 97 | 
CO/N=C(\C)c1ccc(OCc2ccccc2/C(=C\C(N)=O)OC)c(C)c1 [Compound 1a.88, (E)-β-methoxy-2-[2-methyl-4-(1-methoximinoethyl)phenoxymethyl]cinnamide] | 99 | 
CNC(=O)/C=C(/OC)c1ccccc1COc1ccc(C(C)=NOC)cc1C [Compound 1a.89] | 99 | 
CCNC(=O)/C=C(/OC)c1ccccc1COc1ccc(C(C)=NOC)cc1C [Compound 1a.91] | 99 | 
CON=C(C)c1ccc(OCc2ccccc2/C(=C\C(=O)N(C)C)OC)c(C)c1 [Compound 1a.98] | 100 | 
CCCCN(C)C(=O)/C=C(/OC)c1ccccc1COc1ccc(C(C)=NOC)cc1C [Compound 1a.101] | 69 | 
COC(=O)/C=C(/C)c1ccccc1COc1ccccc1C [Compound 1a.108, methyl (Z)-β-methyl-2-(2-methylphenoxymethyl)cinnamate] | 98 | 
COC(=O)/C=C(\C)c1ccccc1COc1ccccc1C [Compound 1a.109, methyl (E)-β-methyl-2-(2-methylphenoxymethyl)cinnamate] | 31 | 
CO/N=C(\C)c1ccc(OCc2ccccc2/C(C)=C\C(=O)OC)c(C)c1 [Compound 1a.112, methyl (Z)-β-methyl-2-[2-methyl-4-(1-(E)-methoximinoethyl)phenoxy]methylcinnamate] | 99 | 
CO/N=C(\C)c1ccc(OCc2ccccc2/C(C)=C/C(=O)OC)c(C)c1 [Compound 1a.113, methyl (E)-β-methyl-2-[2-methyl-4-(1-(E)-methoximinoethyl)phenoxy]methylcinnamate] | 80 | 
COC(=O)/C=C(/OC)c1ccccc1CSc1nc(-c2ccccc2)cs1 [Compound 1a.162] | 76 | 
COC(=O)/C=C(/OC)c1ccccc1/C=C/c1ccccc1 [Compound 1a.233] | 88 | 89

SMILES | % inhibition of respiration at 1.8 × 10^-5 mol/l test substance, Saccharomyces cerevisiae [1] [%] | % inhibition of respiration at 1.8 × 10^-5 mol/l test substance, Musca domestica [2] [%]
COC(=O)/C=C(/OC)c1ccccc1/C=C/c1cccc([N+](=O)[O-])c1 [Compound 1a.240] | 94 | 84
COC(=O)/C=C(/OC)c1ccccc1/C=C\c1cccc([N+](=O)[O-])c1 [Compound 1a.241] | 20 | 9
COC(=O)/C=C(/OC)c1ccccc1/C=C\c1ccccc1C(F)(F)F [Compound 1a.244] | 65 | 50
COC(=O)/C=C(/OC)c1ccccc1/C=C/c1ccccc1C [Compound 1a.247] | 99 | 
COC(=O)/C=C(/OC)c1ccccc1/C=C/c1ccc(C)cc1 [Compound 1a.250] | 99 | 
COC(=O)/C=C(/OC)c1ccccc1/C=C\c1ccc(C)cc1 [Compound 1a.251] | 54 | 
COC(=O)/C=C(/OC)c1ccccc1/C=C/c1ccc(OCc2ccccc2)cc1 [Compound 1a.264, methyl 2-[2-(4-benzyloxyphenyl)-(E)-ethenyl]-(E)-β-methoxycinnamate] | 98 | 
COC(=O)/C=C(/OC)c1ccccc1/C=C/c1cccc(Oc2ccccc2)c1 [Compound 1a.271] | 92 | 94
COC(=O)/C=C(/OC)c1ccccc1/C=C\c1cccc(Oc2ccccc2)c1 [Compound 1a.272] | 51 | 78
COC(=O)/C=C(/OC)c1ccccc1/C=C/c1cc[nH]c1 [Compound 1a.288] | 50 | 22
COC(=O)/C=C(/OC)c1ccccc1/C=C\c1ccoc1 [Compound 1a.293] | 65 | 27
COC(=O)/C=C(/OC)c1ccccc1/C=C\c1cccs1 [Compound 1a.295] | 94 | 76
COC(=O)/C=C(/OC)c1ccccc1/C=C\c1ccsc1 [Compound 1a.297] | 70 | 22
COC(=O)/C=C(/OC)c1ccccc1/C=C/c1nnc(-c2ccccc2)s1 [Compound 1a.308] | 99 | 
COC(=O)/C=C(/OC)c1ccccc1/C=C/c1cnn(-c2cccc(Cl)c2)c1 [Compound 1a.316] | 98 | 
COC(=O)/C=C(/OC)c1ccccc1/C=C\c1cnn(-c2cccc(Cl)c2)c1 [Compound 1a.317] | 29 | 
COC(=O)/C=C(/OC)c1ccccc1/C=C\c1cnn(-c2ccc(OC)cc2)c1 [Compound 1a.319] | 11 | 
COC(=O)/C=C(/OC)c1ccccc1/C=C/c1cnn(-c2ccc(Cl)cc2)c1 [Compound 1a.320] | 98 | 
COC(=O)/C=C(/OC)c1ccccc1/C=C/c1noc(-c2ccc(Cl)cc2)c1C [Compound 1a.322] | 99 | 
COC(=O)/C=C(/OC)c1ccccc1/C=C/c1cc(CC(C)C)no1 [Compound 1a.324] | 99 | 
COC(=O)/C=C(/OC)c1ccccc1/C=C/C1CCCOC1 (centres unmarked) [Compound 1a.329] | 9 | 
COC(=O)/C=C(/OC)c1ccccc1/C=C/C1CCOC(c2ccccc2)C1 (centres unmarked) [Compound 1a.331] | 79 | 
COC(=O)/C=C(/OC)c1ccccc1/C=C/C1CCOC(C2CCCOC2)C1 (centres unmarked) [Compound 1a.333] | 20 | 
COC(=O)/C=C(/OC)c1ccccc1CON=C(c1ccccc1)c1ccc(Cl)cc1 [Compound 1a.358] | 99 | 
